The record followed here is patent US20190316085A1, “Methods Of T-Lymphocyte Expansion” (Cambridge Enterprise Limited, priority 2015, published 2019).

The subject of this assay is OT-I CD8^+CD45.1^+ T-lymphocytes. As to the kind of experiment: In vivo memory recall experiment (adoptive transfer, vaccination). More on the design: species or system mouse. The conditions noted are these: for formation of memory cells after in vitro treatment of CD8+ T-cells: 0.5 mM, 7 days with IL-2 (FIGS. 13, 16, 17); for in vivo recall in response to vaccination: cells pre-treated 7 days with 0.5 mM, 37 days after adoptive transfer. As to the method:
FIGS. 13B and 13C show representative flow cytometry plots of (B) CD8^+CD45.1^+ (C) or Kb/SIINFEKL Pentamer^+CD45.1^+ T-lymphocytes, in the spleens of vaccinated litter mate CD45.2 mice, 37 days after adoptive transfer of SIINFEKL-activated OT-I CD8^+CD45.1^+ T-lymphocytes, expanded with 0.5 mM S-2HG-octyl ester, 0.5 mM R-2HG-octyl ester or vehicle in the presence of IL-2 for 7 days. FIGS. 13D-F show (13D) the number of recovered CD45.1^+CD8^+ T-lymphocytes per spleen and (13E) % CD45.1^+ cells of the total CD8^+ population in each spleen or (13F) number of recovered Kb/SIINFEKL Pentamer^+CD45.1^+ T-lymphocytes per spleen 7 days after vaccination (37 days after the CD8+ T-cells were transferred into the mice). n=6 mice per group and error bars denote the s.e.m.
Total splenocytes from OT-1 CD45.1^+ mice were activated with 1000 nM SIINFEKL peptide in the presence of IL-2 and vehicle, 0.5 mM S-2HG-octyl ester or 0.5 mM R-2HG-octyl ester for 7 days. 1 million CD45^+CD8^+ cells were then injected intravenously into C57/B6 wild type CD45.2^+ host mice. 30 days later, host mice were vaccinated i.p. with SIINFEKL-loaded dendritic cells. 7 days later, spleens were harvested from host mice and the presence of CD45.1^+CD8^+ and Kb/SIINFEKL Pentamer+cells was determined by flow cytometry. Absolute numbers of cells were determined with the use of counting beads (CountBright, Life Technologies). Dendritic cells were prepared from bone marrow extracted from wild type C57/B6 mice. Bone marrow derived cells were cultured in non-TC treated petri dishes in RPMI-1640 medium containing 2 mM glutamine, 10% FBS, 25 mM HEPES, pH 7.2, 1% penicillin-streptomycin, 55 μM […] supplemented 20 ng/ml mGM-CSF (R&D Systems). After 8 days of culture, dendritic cells were activated with 1 μg/ml LPS (Sigma) for 24 h. The maturation of dendritic cells was confirmed by flow cytometry using the following markers: MHC class II-APC, CD11b-AF488, CD11c-AF488 and CD86-PE/Cy7 (Biolegend). Mature dendritic cells were then loaded with 2 μM SIINFEKL peptide at 37° C. for 1 hour. After peptide loading, dendritic cells were detached with 3 mM EDTA in PBS for 5-10 min at 37° C. and washed with PBS. For vaccination, 1 million peptide-loaded dendritic cells were injected i.p. per mouse in 100 μl PBS.

Regarding `CCCCCCCCOC(=O)[C@H](O)CCC(=O)O` [R-2HG-octyl ester], the “formation of memory cells after in vitro treatment of CD8+ T-cells” value is “induces the formation” and the “in vivo recall in response to vaccination” value is on record as “enhanced in vivo recall”.

As for `CCCCCCCCOC(=O)[C@@H](O)CCC(=O)O` [S-2HG-octyl ester, S-2HG octyl ester], the “formation of memory cells after in vitro treatment of CD8+ T-cells” value is listed as “induces the formation” and the “in vivo recall in response to vaccination” value is listed as “enhanced in vivo recall”.
